# Values of other authors, collected in article PMC9305358 (The Journal of Biological Chemistry, 2022).
# Where two headings read alike, the source gives them in different places.
# How the values were obtained:
# [1] = system: Mtb cells; details: ref [19], [20], [21], [22]; cited from earlier work
# [2] = system: ClpC1; details: cited from earlier work
# [3] = system: ClpC1 NTD; details: crystal structure pdb6PBS, ref [25]; cited from earlier work
Substance,toxicity to Mtb cells [1],"effect on ClpC1 ATPase activity ([2]; ref [20], [21])",binding stoichiometry/mode at ClpC1 NTD [3],effect on ClpC1 ATPase activity ([2]; ref [22])
lassomycin,highly toxic to Mtb cells,increase ClpC1 ATPase activity,–,–
ecumicin,highly toxic to Mtb cells,increase ClpC1 ATPase activity,two ecumicin peptides bind to the NTD,–
rufomycin,highly toxic to Mtb cells,–,–,shows no impact
